Patent US7655669B2, “Pyrimidineamide derivatives and the use thereof” (Novartis AG, priority 2002, dated 2010)

Columns and labels:
[1] = target: T1, c-Abl protein tyrosine kinase (Homo sapiens, UniProt P00519); experiment: Test for activity against c-Abl protein tyrosine kinase (filter binding assay); format: biochemical; details: expressed as a range within which individual IC50 measurements fall
T1 construct: The His-tagged kinase domain of c-Abl is cloned and expressed in the baculovirus/Sf9 system; His; made in house; host or cells: baculovirus/Sf9
T1 sequence (P00519 242-493 limits assumed): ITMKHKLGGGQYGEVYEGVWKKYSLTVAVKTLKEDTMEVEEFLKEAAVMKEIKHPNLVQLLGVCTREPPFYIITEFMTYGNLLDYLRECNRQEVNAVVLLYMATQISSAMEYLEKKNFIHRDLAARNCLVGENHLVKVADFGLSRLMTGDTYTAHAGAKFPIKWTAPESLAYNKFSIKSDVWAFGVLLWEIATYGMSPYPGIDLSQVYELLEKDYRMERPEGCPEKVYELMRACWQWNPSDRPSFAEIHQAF
Method: Test for activity against c-Abl protein tyrosine kinase. […] The assay contains: c-Abl kinase (50 ng), 20 mM Tris-HCl, pH 7.5, 10 mM MgCl2, 10 μM Na3VO4, 1 mM DTT and 0.06 μCi/assay [γ^33P]-ATP (5 μM ATP) using 30 μg/mL poly-Ala,Glu,Lys,Tyr-6:2:5:1 (Poly-AEKY, Sigma P1152) in the presence of 1% DMSO, total volume of 30 μL. Reactions are terminated by adding 10 μL of 250 mM EDTA, and 30 μL of the reaction mixture is transferred onto Immobilon-PVDF membrane (Millipore, Bedford, Mass., USA) previously soaked for 5 min with methanol, rinsed with water, then soaked for 5 min with 0.5% H3PO4 and mounted on vacuum manifold with disconnected vacuum source. After spotting all samples, vacuum is connected and each well rinsed with 200 μL 0.5% H3PO4. Membranes are removed and washed on a shaker with 0.5% H3PO4 (4 times) and once with ethanol. Membranes are counted after drying at ambient temperature, mounting in Packard TopCount 96-well frame, and addition of 10 μL/well of Microscint™ (Packard).

[2] = target: T2, p210 Bcr-Abl (Homo sapiens, UniProt P00519); experiment: Test for activity against Bcr-Abl (Bcr-Abl phosphorylation ELISA in 32D-bcr/abl cells); format: cell-based; details: expressed as a range within which individual IC50 measurements fall
T2 construct: expressed in transfected cells; host or cells: murine myeloid progenitor cell line 32Dcl3 (32D-bcr/abl), from J. Griffin; the other entry of the earlier key: BCR (P11274, Breakpoint cluster region protein)
T2 sequence (P00519 28-1130 limits assumed): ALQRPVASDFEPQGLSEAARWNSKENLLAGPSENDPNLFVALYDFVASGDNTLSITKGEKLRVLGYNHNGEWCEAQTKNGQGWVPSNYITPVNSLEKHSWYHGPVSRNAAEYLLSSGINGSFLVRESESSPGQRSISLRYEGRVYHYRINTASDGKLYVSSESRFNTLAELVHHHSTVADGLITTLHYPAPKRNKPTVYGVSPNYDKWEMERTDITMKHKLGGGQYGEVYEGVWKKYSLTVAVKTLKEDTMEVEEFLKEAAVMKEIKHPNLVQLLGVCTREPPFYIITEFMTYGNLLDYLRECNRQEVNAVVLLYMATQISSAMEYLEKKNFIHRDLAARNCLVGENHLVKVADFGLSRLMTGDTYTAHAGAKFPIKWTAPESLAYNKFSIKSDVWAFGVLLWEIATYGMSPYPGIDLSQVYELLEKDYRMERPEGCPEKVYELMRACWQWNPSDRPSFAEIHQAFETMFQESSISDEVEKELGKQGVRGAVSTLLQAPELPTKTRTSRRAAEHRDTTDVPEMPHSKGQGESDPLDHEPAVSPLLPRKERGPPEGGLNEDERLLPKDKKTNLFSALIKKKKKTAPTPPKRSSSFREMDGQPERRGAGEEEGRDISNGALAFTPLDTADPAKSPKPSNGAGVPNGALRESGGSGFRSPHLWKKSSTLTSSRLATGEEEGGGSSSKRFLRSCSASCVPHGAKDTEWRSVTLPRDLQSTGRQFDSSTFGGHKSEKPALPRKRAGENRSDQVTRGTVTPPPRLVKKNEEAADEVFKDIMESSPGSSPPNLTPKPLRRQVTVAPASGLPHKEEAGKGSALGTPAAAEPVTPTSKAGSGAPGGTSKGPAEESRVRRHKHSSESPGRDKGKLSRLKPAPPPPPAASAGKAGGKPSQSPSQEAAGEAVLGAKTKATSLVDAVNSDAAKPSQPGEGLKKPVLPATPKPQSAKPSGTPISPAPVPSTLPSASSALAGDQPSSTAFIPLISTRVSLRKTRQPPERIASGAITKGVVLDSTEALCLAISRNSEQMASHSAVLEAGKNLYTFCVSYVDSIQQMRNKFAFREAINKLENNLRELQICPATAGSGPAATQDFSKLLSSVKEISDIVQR
Excerpt: Test for activity against Bcr-Abl. The murine myeloid progenitor cell line 32Dcl3 transfected with the p210 Bcr-Abl expression vector pGDp210Bcr/Abl (32D-bcr/abl) was obtained from J. Griffin (Dana Faber Cancer Institute, Boston, Mass., USA). The cells express the fusion Bcr-Abl protein with a constitutively active Abl kinase and proliferate growth factor independent. […] After thawing, the cells are used during maximally 10-12 passages for the experiments.
For cellular assays, compounds are dissolved in DMSO and diluted with complete medium to yield a starting concentration of 10 μM followed by preparation of serial 3-fold dilutions in complete medium. 200,000 32D-Bcr/Abl cells in 50 μL complete medium are seeded per well in 96 well round bottom tissue culture plates. 50 μL per well of serial 3-fold dilutions of the test compound are added to the cells in triplicates. Untreated cells are used as control. The compound is incubated together with the cells for 90 min at 37° C., 5% CO2, followed by centrifugation of the tissue culture plates at 1300 rpm (Beckman GPR centrifuge) and removal of the supernatants by careful aspiration taking care not to remove any of the pelleted cells. The cell pellets are lysed by addition of 150 μL lysis buffer (50 mM Tris/HCl, pH 7.4, 150 mM sodium chloride, 5 mM EDTA, 1 mM EGTA, 1% NP-40, 2 mM sodium ortho-vanadate, 1 mM PMSF, 50 μg/mL aprotinin and 80 μg/mL leupeptin) and either used immediately for the ELISA or stored frozen in the plates at −20° C. until usage.
After washing 3 times with 200 μL/well PBS containing 0.05% Tween20 (PBST) and 0.5% TopBlock (Juro), residual protein binding sites are blocked with 200 μL/well PBST, 3% TopBlock for 4 h at room temperature followed by incubation with 50 μL lysates of untreated or compound-treated cells (20 μg total protein per well) for 3-4 h at 4° C. After 3 washings, 50 μL/well anti-phosphotyrosine Ab PY20(AP) labeled with alkaline phosphatase (Zymed) diluted to 0.2 μg/mL in blocking buffer is added and incubated over night (4° C.). For all incubation steps the plates are covered with plate sealers (Costar). Finally, the plates are washed another three times with washing buffer and once with deionized water before addition of 90 μL/well of the AP-substrate CDPStar RTU with Emerald II. The plates, now sealed with Packard TopSeal™-A plate sealers, are incubated for 45 min at room temperature in the dark and luminescence is quantified by measuring counts per second (CPS) with a Packard Top Count Microplate Scintillation Counter (Top Count).
The difference between the ELISA-readout (CPS) obtained for with the lysates of the untreated 32D-Bcr/Abl cells and the readout for the assay-background (all components, but without cell lysate) is calculated and taken as 100% reflecting the constitutively phosphorylated Bcr-Abl protein present in these cells. The activity of the compound on the Bcr-Abl kinase activity is expressed as percent reduction of the Bcr-Abl phosphorylation. The values for the IC50 and IC90 are determined from the dose response curves by graphical extrapolation.

Row | IC50 [1] [µM] | IC50 [2] [µM] | Compound
1 | 0.01 to 0.06 | 0.1 to 0.3 | Cc1ccc(NC(=O)c2ccc(N3CCCC3)c(C(F)(F)F)c2)cc1Nc1nccc(-c2cccnc2)n1 [Example 2, N-[4-Methyl-3-[[4-(3-pyridinyl)-2-pyrimidinyl]amino]phenyl]-4-(1-pyrrolidinyl)-3-(trifluoromethyl)-benzamide]
2 | 0.005 to 0.02 | 0.01 to 0.05 | Cc1ccc(NC(=O)c2cc(-n3ccnc3)cc(C(F)(F)F)c2)cc1Nc1nccc(-c2cccnc2)n1 [Example 10, 3-(1H-Imidazol-1-yl)-N-[4-methyl-3-[[4-(3-pyridinyl)-2-pyrimidinyl]amino]phenyl]-5-(trifluoromethyl)-benzamide]
3 | 0.005 to 0.02 | 0.01 to 0.05 | Cc1ccc(NC(=O)c2ccc(-n3ccnc3C)c(C(F)(F)F)c2)cc1Nc1nccc(-c2cccnc2)n1 [Example 7, 4-(2-Methyl-1H-imidazol-1-yl)-N-[4-methyl-3-[[4-(3-pyridinyl)-2-pyrimidinyl]amino]phenyl]-3-(trifluoromethyl)-benzamide]
4 | 0.005 to 0.05 | 0.03 to 0.1 | Cc1ccc(NC(=O)c2ccc(N3CCN(C)CC3)c(C(F)(F)F)c2)cc1Nc1nccc(-c2cccnc2)n1 [Example 5, 4-(4-Methyl-1-piperazinyl)-N-[4-methyl-3-[[4-(3-pyridinyl)-2-pyrimidinyl]amino]phenyl]-3-(trifluoromethyl)-benzamide]
5 | 0.06 to 0.11 | 0.08 to 0.2 | Cc1ccc(NC(=O)c2ccc(N3CCCCC3)c(C(F)(F)F)c2)cc1Nc1nccc(-c2cccnc2)n1 [Example 4, N-[4-Methyl-3-[[4-(3-pyridinyl)-2-pyrimidinyl]amino]phenyl]-4-(1-piperidinyl)-3-(trifluoromethyl)-benzamide]
6 | 0.005 to 0.02 | 0.05 to 0.2 | Cc1ccc(NC(=O)c2ccc(N(C)CCN(C)C)c(C(F)(F)F)c2)cc1Nc1nccc(-c2cccnc2)n1 [Example 15, 4-[[2-(Dimethylamino)ethyl]methylamino]-N-[4-methyl-3-[[4-(3-pyridinyl)-2-Pyrimidinyl]amino]phenyl]-3-(trifluoromethyl)-benzamide]
7 | 0.005 to 0.02 | 0.01 to 0.05 | Cc1cn(-c2ccc(C(=O)Nc3ccc(C)c(Nc4nccc(-c5cccnc5)n4)c3)cc2C(F)(F)F)cn1 [Example 8, 4-(4-Methyl-1H-imidazol-1-yl)-N-[4-methyl-3-[[4-(3-pyridinyl)-2-pyrimidinyl]amino]phenyl]-3-(trifluoromethyl)-benzamide]
8 | – | 0.013 | CC(=O)Nc1cc(C(=O)Nc2ccc(C)c(Nc3nccc(-c4cccnc4)n3)c2)cc(C(F)(F)F)c1 [Example 18, 3-Acetylamino-N-[4-methyl-3-[[4-(3-pyridinyl)-2-pyrimidinyl]amino]phenyl]-5-(trifluoromethyl)-benzamide]
9 | 0.005 to 0.02 | 0.01 to 0.05 | Cc1ccc(NC(=O)c2ccc(-n3ccnc3)c(C(F)(F)F)c2)cc1Nc1nccc(-c2cccnc2)n1 [Example 6, 4-(1H-Imidazol-1-yl)-N-[4-methyl-3-[[4-(3-pyridinyl)-2-pyrimidinyl]amino]phenyl]-3-(trifluoromethyl)-benzamide]
10 | 0.01 to 0.07 | 0.02 to 0.06 | CCNc1cc(C(=O)Nc2ccc(C)c(Nc3nccc(-c4cccnc4)n3)c2)cc(C(F)(F)F)c1 [Example 17]
11 | 0.005 to 0.02 | 0.01 to 0.05 | Cc1cn(-c2cc(C(=O)Nc3ccc(C)c(Nc4nccc(-c5cccnc5)n4)c3)cc(C(F)(F)F)c2)cn1 [Example 12, 3-(4-Methyl-1H-imidazol-1-yl)-N-[4-methyl-3-[4-(3-pyridinyl)-2-pyrimidinyl]amino]phenyl-5-(trifluoromethyl)-benzamide]
12 | 0.005 to 0.02 | 0.02 to 0.08 | Cc1ccc(NC(=O)c2cc(N3CCOCC3)cc(C(F)(F)F)c2)cc1Nc1nccc(-c2cccnc2)n1 [Example 13, N-[4-Methyl-3-[[4-(3-pyridinyl)-2-pyrimidinyl]amino]phenyl]-3-(4-morpholinyl)-5-(trifluoromethyl)-benzamide]
13 | 0.005 to 0.02 | 0.01 to 0.05 | Cc1ccc(NC(=O)c2cc(-n3ccnc3C)cc(C(F)(F)F)c2)cc1Nc1nccc(-c2cccnc2)n1 [Example 11, 3-(2-Methyl-1H-imidazol-1-yl)-N-[4-methyl-3-[[4-(3-pyridinyl)-2-pyrimidinyl]amino]phenyl]-5-(trifluoromethyl)-benzamide]
14 | 0.005 to 0.02 | 0.03 to 0.18 | Cc1ccc(NC(=O)c2cc(N3CCN(C)CC3)cc(C(F)(F)F)c2)cc1Nc1nccc(-c2cccnc2)n1 [Example 14, 3-(4-Methyl-1-piperazinyl)-N-[4-methyl-3-[[4-(3-pyridinyl)-2-pyrimidinyl]amino]phenyl]-5-(trifluoromethyl)-benzamide]
15 | 0.005 to 0.02 | 0.05 to 0.2 | Cc1ccc(NC(=O)c2ccc(N(C)C3CCN(C)CC3)c(C(F)(F)F)c2)cc1Nc1nccc(-c2cccnc2)n1 [Example 16, 4-[Methyl-(1-methyl-4-piperidinyl)amino]-N-[4-methyl-3-[[4-(3-Pyridinyl)-2-pyrimidinyl]amino]phenyl]-3-(trifluoromethyl)-benzamide]
16 | 0.05 to 0.1 | 0.2 to 0.5 | CCN(CC)c1ccc(C(=O)Nc2ccc(C)c(Nc3nccc(-c4cccnc4)n3)c2)cc1C(F)(F)F [Example 1, 4-Diethylamino-N-[4-methyl-3-[[4-(3-pyridinyl)-2-pyrimidinyl]amino]phenyl]-3-(trifluoromethyl)-benzamide]
17 | 0.04 to 0.1 | 0.02 to 0.1 | Cc1ccc(NC(=O)c2ccc(N3CCOCC3)c(C(F)(F)F)c2)cc1Nc1nccc(-c2cccnc2)n1 [Example 3, N-[4-Methyl-3-[[4-(3-pyridinyl)-2-pyrimidinyl]amino]phenyl]-4-(4-morpholinyl)-3 (trifluoromethyl)-benzamide]
18 | 0.005 to 0.02 | 0.02 to 0.08 | Cc1cn(-c2ccc(C(=O)Nc3ccc(C)c(Nc4nccc(-c5cccnc5)n4)c3)cc2C(F)(F)F)c(C)n1 [Example 9, 4-(2,4-Dimethyl-1H-imidazol-1-yl)-N-[4-methyl-3-[[4-(3-pyridinyl)-2-pyrimidinyl]amino]phenyl]-3-(trifluoromethyl)-benzamide]
